Test results published in US7851637B2, “Compounds and methods for inhibiting the interaction of BCL proteins with binding partners” (Infinity Pharmaceuticals, Inc., priority 2004, dated 2010).
Read-outs that look alike come from different tables or passages of the source.

How the values were obtained:
[1] = system: RL Human Follicular Lymphoma Cell Line; assay: Alamar blue cytotoxicity assay in RL cells; format: cell-based; details: Homo sapiens, 72 h incubation, read-out: Bcl RL Alamar Blue IC50
Procedure: (§1) When RL-cells are exposed to isoxazolidine compounds of the present invention, the inhibitors show a dose-dependent cell-killing in the Alamar blue cytoxicity assay with IC50 values of from about 100 μM to about 1 μM (See Examples). When Panc1 cells are exposed to the isoxazolidine compounds of the present invention in combination with camptothecin, the inhibitors show a synergistic dose-dependent cell killing in the propidium iodide exclusion cell survival assay with IC50 values of from about 100 μM to about 1 μM (See Examples).
• 1) Using 96 well plates, compounds were serially diluted in DMSO from 9 mM to 4 uM • 2) Assay plates were prepared by diluting samples 310 fold into 150 ul of medium containing 30,000 cells/well resulting in a final DMSO concentration of 0.3% and a concentration range from 29 uM to 0.013 uM for each compound. • 3) Plates were incubated at 37 C and 5% CO2 for 72 h • 4) After 72 h, Alamar blue reagent was added to each well and plates read according to manufacturer's instructions
In vitro cytotoxicity data for RL cells is presented below for various compounds of the invention.

Bcl-2 = Bcl-2 (Homo sapiens, UniProt P10415); assay: Bcl-2 binding affinity analysis (fluorescence polarization binding assay)
Sequence of Bcl-2 (P10415 whole entry): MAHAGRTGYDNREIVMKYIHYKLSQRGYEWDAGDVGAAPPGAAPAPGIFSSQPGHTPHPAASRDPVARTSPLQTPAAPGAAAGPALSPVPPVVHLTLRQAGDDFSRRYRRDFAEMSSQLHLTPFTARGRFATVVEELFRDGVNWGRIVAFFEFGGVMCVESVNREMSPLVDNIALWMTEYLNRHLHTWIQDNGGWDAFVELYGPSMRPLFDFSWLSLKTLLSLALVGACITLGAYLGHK
Summary of the method: (§2)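 FP readout; quantitative in vitro binding format; same method applied to both anti-apoptotic proteins.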

Bcl-xL = Bcl-xL (Homo sapiens, UniProt Q07817); assay: Bcl-xL binding affinity analysis (fluorescence polarization binding assay); parameters: scale not given here
Sequence of Bcl-xL (Q07817 whole entry): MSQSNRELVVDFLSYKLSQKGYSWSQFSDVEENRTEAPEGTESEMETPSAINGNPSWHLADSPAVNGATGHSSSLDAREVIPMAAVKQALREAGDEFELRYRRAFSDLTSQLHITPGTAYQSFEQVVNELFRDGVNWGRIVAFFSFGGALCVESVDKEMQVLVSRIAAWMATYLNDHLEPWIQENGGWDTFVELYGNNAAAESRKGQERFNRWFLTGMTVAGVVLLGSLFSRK
Summary of the method: as §2

[2] = system: Human Pancreatic Cancer Cell Line Panc1; assay: Cell death assay (propidium iodide/Hoechst) in Panc1 cells with or without camptothecin; format: cell-based; details: 72 hours, % cell death by propidium iodide/Hoechst
Procedure: as §1
• 1) Compounds were serially diluted in DMSO from a 9 mM stock to a final concentration of 0.004 mM in a 96 well plate. • 2) Assay plates were prepared by diluting compounds 310 fold into 150 ul of medium containing 10,000 cells/well, with or without 3 uM Camptothecin, resulting in a final DMSO concentration of 0.3% and a compound concentration range from 29 uM to […] for each compound. • 3) Assay plates were incubated at 37 C, 5% CO2 for 72 hours. • 4) After 72 hours, propidium iodide and Hoechst dye were added to each well according to manufacturer's instruction. • 5) Plates were imaged on a fluorescence microscope at wavelengths Ex560/Em650 (Propidium iodide) and Ex360/Em465 (Hoechst) • 6) MetaMorph imaging software was used to determine % cell death by dividing the number of propidium iodide stained cells (dead cells) by the number of Hoechst stained cells (all cells), multipled by 100, in each field.
Panc1 invitro cellular data is presented below for various compounds of the invention.

SMILES: COC(=O)CCNC(=O)c1cccc(-c2cccc(CN3O[C@@H](CO)[C@@H]([C@H](C)O)[C@H]3C(=O)N[C@H]3C[C@H]4C[C@@H]([C@@H]3C)C4(C)C)c2)c1 [Compound 190]
- IC50 [1]: 2000 to 5000 nM

SMILES: CC(C)C[C@@H](CN(C)C)N(Cc1cccc(CN2O[C@@H](CO)C([C@H](C)O)[C@H]2C(=O)N[C@H]2C[C@H]3C[C@@H]([C@@H]2C)C3(C)C)c1)Cc1c(Cl)cccc1[N+](=O)[O-] (some centres unmarked) [Compound 322]
- Ki (Bcl-2): < 800 nM
- Bcl-XL binding affinity Ki (Bcl-xL): ♯
- IC50 [1]: 2000 to 5000 nM

SMILES: CC(C)CC(CN(C)C)N(Cc1cccc(CN2OC(CO)C(C(C)O)C2C(=O)NC2CC3CC(C2C)C3(C)C)c1)Cc1ccc(F)cc1C(F)(F)F (centres unmarked) [Compound 323]
- Ki (Bcl-2): < 800 nM
- Bcl-XL binding affinity Ki (Bcl-xL): ♯
- IC50 [1]: > 5000 nM

SMILES: COc1cccc(OC)c1CN(Cc1cccc(CN2OC(CO)C(C(C)O)C2C(=O)NC2CC3CC(C2C)C3(C)C)c1)C(CC(C)C)CN(C)C (centres unmarked) [Compound 324]
- Ki (Bcl-2): < 800 nM
- Bcl-XL binding affinity Ki (Bcl-xL): ♯
- IC50 [1]: < 2000 nM

SMILES: CC(C)CC(CN(C)C)N(Cc1cccc(CN2OC(CO)C(C(C)O)C2C(=O)NC2CC3CC(C2C)C3(C)C)c1)Cc1cccc(C(F)(F)F)c1 (centres unmarked) [Compound 326]
- Ki (Bcl-2): < 800 nM
- Bcl-XL binding affinity Ki (Bcl-xL): ♯
- IC50 [1]: 2000 to 5000 nM

SMILES: CC(C)CC(CN(C)C)N(Cc1ccc(C(F)(F)F)cc1)Cc1cccc(CN2OC(CO)C(C(C)O)C2C(=O)NC2CC3CC(C2C)C3(C)C)c1 (centres unmarked) [Compound 327]
- Ki (Bcl-2): < 800 nM
- Bcl-XL binding affinity Ki (Bcl-xL): ♯
- IC50 [1]: < 2000 nM

SMILES: CC(O)C1C(CO)ON(Cc2cccc(CN(CCN(C)C)Cc3ccccc3-c3ccccc3)c2)C1C(=O)NC1CC2CC(C1C)C2(C)C (centres unmarked) [Compound 340]
- Ki (Bcl-2): < 800 nM
- Bcl-XL binding affinity Ki (Bcl-xL): ♯
- IC50 [1]: 2000 to 5000 nM

SMILES: CCc1ccccc1CN(CCN(C)C)Cc1cccc(CN2OC(CO)C(C(C)O)C2C(=O)NC2CC3CC(C2C)C3(C)C)c1 (centres unmarked) [Compound 349]
- Ki (Bcl-2): < 800 nM
- Bcl-XL binding affinity Ki (Bcl-xL): ♯
- IC50 [1]: < 2000 nM

SMILES: COc1ccccc1CN(CCN(C)C)Cc1cccc(CN2OC(CO)C(C(C)O)C2C(=O)NC2CC3CC(C2C)C3(C)C)c1 (centres unmarked) [Compound 351]
- Ki (Bcl-2): < 800 nM
- Bcl-XL binding affinity Ki (Bcl-xL): ♯
- IC50 [1]: 2000 to 5000 nM

SMILES: CC(O)C1C(CO)ON(Cc2cccc(CN(CCN(C)C)Cc3ccccc3F)c2)C1C(=O)NC1CC2CC(C1C)C2(C)C (centres unmarked) [Compound 352]
- Ki (Bcl-2): < 800 nM
- Bcl-XL binding affinity Ki (Bcl-xL): ♯
- IC50 [1]: 2000 to 5000 nM

SMILES: CCCCCCCN(CCN(C)C)Cc1cccc(CN2O[C@@H](CO)C([C@H](C)O)[C@H]2C(=O)N[C@H]2C[C@H]3C[C@@H]([C@@H]2C)C3(C)C)c1 (some centres unmarked) [Compound 355]
- Ki (Bcl-2): < 800 nM
- Bcl-XL binding affinity Ki (Bcl-xL): ♯
- IC50 [1]: 2000 to 5000 nM

SMILES: CC(O)C1C(CO)ON(Cc2cccc(CN(CCN(C)C)Cc3cccc(F)c3)c2)C1C(=O)NC1CC2CC(C1C)C2(C)C (centres unmarked) [Compound 356]
- Ki (Bcl-2): < 800 nM
- Bcl-XL binding affinity Ki (Bcl-xL): ♯
- IC50 [1]: > 5000 nM

SMILES: CC(O)C1C(CO)ON(Cc2cccc(CN(CCN(C)C)Cc3cccc(Cl)c3)c2)C1C(=O)NC1CC2CC(C1C)C2(C)C (centres unmarked) [Compound 361]
- Ki (Bcl-2): < 800 nM
- Bcl-XL binding affinity Ki (Bcl-xL): ♯
- IC50 [1]: 2000 to 5000 nM

SMILES: C[C@@H]1[C@@H](NC(=O)[C@@H]2C([C@H](C)O)[C@H](CO)ON2Cc2cccc(CN(CCN(C)C)Cc3cccc(F)c3F)c2)C[C@H]2C[C@@H]1C2(C)C (some centres unmarked) [Compound 362]
- Ki (Bcl-2): < 800 nM
- Bcl-XL binding affinity Ki (Bcl-xL): ♯
- IC50 [1]: 2000 to 5000 nM

SMILES: C[C@@H]1[C@@H](NC(=O)[C@@H]2C([C@H](C)O)[C@H](CO)ON2Cc2cccc(CN(CCN(C)C)Cc3ccccc3OC(F)(F)F)c2)C[C@H]2C[C@@H]1C2(C)C (some centres unmarked) [Compound 365]
- Ki (Bcl-2): < 800 nM
- Bcl-XL binding affinity Ki (Bcl-xL): ♯
- IC50 [1]: < 2000 nM

SMILES: CC(O)C1C(CO)ON(Cc2cccc(CN(CCN(C)C)Cc3cccc(OC(F)(F)F)c3)c2)C1C(=O)NC1CC2CC(C1C)C2(C)C (centres unmarked) [Compound 367]
- Ki (Bcl-2): < 800 nM
- Bcl-XL binding affinity Ki (Bcl-xL): ♯
- IC50 [1]: 2000 to 5000 nM

SMILES: CC(O)C1C(CO)ON(Cc2cccc(CN(CCN(C)C)Cc3cccc4ccccc34)c2)C1C(=O)NC1CC2CC(C1C)C2(C)C (centres unmarked) [Compound 368]
- Ki (Bcl-2): < 800 nM
- Bcl-XL binding affinity Ki (Bcl-xL): ♯
- IC50 [1]: 2000 to 5000 nM

SMILES: CC(O)C1C(CO)ON(Cc2cccc(CN(CCN(C)C)Cc3ccccc3C#N)c2)C1C(=O)NC1CC2CC(C1C)C2(C)C (centres unmarked) [Compound 369]
- Ki (Bcl-2): < 800 nM
- Bcl-XL binding affinity Ki (Bcl-xL): ♯
- IC50 [1]: 2000 to 5000 nM

SMILES: CC(O)C1C(CO)ON(Cc2cccc(CN(CCN(C)C)Cc3ccc(C(F)(F)F)cc3)c2)C1C(=O)NC1CC2CC(C1C)C2(C)C (centres unmarked) [Compound 371]
- Ki (Bcl-2): < 800 nM
- Bcl-XL binding affinity Ki (Bcl-xL): ♯
- IC50 [1]: 2000 to 5000 nM

SMILES: CC(O)C1C(CO)ON(Cc2cccc(CN(CCN(C)C)Cc3c(Cl)cccc3Cl)c2)C1C(=O)NC1CC2CC(C1C)C2(C)C (centres unmarked) [Compound 373]
- Ki (Bcl-2): < 800 nM
- Bcl-XL binding affinity Ki (Bcl-xL): ♯
- IC50 [1]: 2000 to 5000 nM

SMILES: CC(O)C1C(CO)ON(Cc2cccc(CN(CCN(C)C)Cc3cccc(Oc4ccccc4)c3)c2)C1C(=O)NC1CC2CC(C1C)C2(C)C (centres unmarked) [Compound 374]
- Ki (Bcl-2): < 800 nM
- Bcl-XL binding affinity Ki (Bcl-xL): ♯
- IC50 [1]: 2000 to 5000 nM

SMILES: CC(O)C1C(CO)ON(Cc2cccc(CN(CCN(C)C)Cc3cccc(O)c3)c2)C1C(=O)NC1CC2CC(C1C)C2(C)C (centres unmarked) [Compound 378]
- Ki (Bcl-2): < 800 nM
- Bcl-XL binding affinity Ki (Bcl-xL): ♯
- IC50 [1]: 2000 to 5000 nM

SMILES: CC(C)CN(CCN(C)C)Cc1cccc(CN2OC(CO)C(C(C)O)C2C(=O)NC2CC3CC(C2C)C3(C)C)c1 (centres unmarked) [Compound 379]
- Ki (Bcl-2): < 800 nM
- Bcl-XL binding affinity Ki (Bcl-xL): ♯
- IC50 [1]: > 5000 nM

SMILES: CCOc1cccc(CN(CCN(C)C)Cc2cccc(CN3OC(CO)C(C(C)O)C3C(=O)NC3CC4CC(C3C)C4(C)C)c2)c1 (centres unmarked) [Compound 383]
- Ki (Bcl-2): < 800 nM
- Bcl-XL binding affinity Ki (Bcl-xL): ♯
- IC50 [1]: 2000 to 5000 nM

SMILES: CC(O)C1C(CO)ON(Cc2cccc(CN(CCN(C)C)Cc3cc4ccccc4o3)c2)C1C(=O)NC1CC2CC(C1C)C2(C)C (centres unmarked) [Compound 384]
- Ki (Bcl-2): < 800 nM
- Bcl-XL binding affinity Ki (Bcl-xL): ♯
- IC50 [1]: 2000 to 5000 nM

SMILES: Cc1ccc(CN(CCN(C)C)Cc2cccc(CN3OC(CO)C(C(C)O)C3C(=O)NC3CC4CC(C3C)C4(C)C)c2)cc1 (centres unmarked) [Compound 386]
- Ki (Bcl-2): < 800 nM
- Bcl-XL binding affinity Ki (Bcl-xL): ♯
- IC50 [1]: 2000 to 5000 nM

SMILES: CC(O)C1C(CO)ON(Cc2cccc(CN(CCN(C)C)Cc3cccc(C(F)(F)F)c3)c2)C1C(=O)NC1CC2CC(C1C)C2(C)C (centres unmarked) [Compound 398]
- Ki (Bcl-2): < 800 nM
- Bcl-XL binding affinity Ki (Bcl-xL): ♯
- IC50 [1]: > 5000 nM

SMILES: CC(O)C1C(CO)ON(Cc2cccc(CN(CCN(C)C)Cc3ccc(-c4ccccc4)cc3)c2)C1C(=O)NC1CC2CC(C1C)C2(C)C (centres unmarked) [Compound 400]
- Ki (Bcl-2): < 800 nM
- Bcl-XL binding affinity Ki (Bcl-xL): ♯
- IC50 [1]: < 2000 nM

SMILES: COc1cc(CN(CCN(C)C)Cc2cccc(CN3OC(CO)C(C(C)O)C3C(=O)NC3CC4CC(C3C)C4(C)C)c2)cc(OC)c1 (centres unmarked) [Compound 404]
- Ki (Bcl-2): < 800 nM
- Bcl-XL binding affinity Ki (Bcl-xL): ♯
- IC50 [1]: 2000 to 5000 nM

SMILES: C[C@@H]1[C@@H](NC(=O)[C@@H]2[C@H]([C@H](C)O)[C@H](CO)ON2Cc2cccc(N(CCc3ccccc3)CCN(C)C)c2)C[C@H]2C[C@@H]1C2(C)C [Compound 578]
- Ki (Bcl-2): < 800 nM
- Bcl-XL binding affinity Ki (Bcl-xL): ♯
- IC50 ([2]; Homo sapiens, PANC-1, without camptothecin, read-out: Panc1 − Cpt IC50): > 2500 nM
- IC50 ([2]; with 3 uM Camptothecin, read-out: Panc1 + Cpt IC50): 1800 to 2500 nM
